In patent US11028090B2 (Dong Wha Pharm. Co., Ltd., priority 2017, dated 2021):
Like-named read-outs stand apart in the source and are kept apart here.

Tests used:
[1] = test system: acute myelogenous leukemia cells (MV-4-11 cells); assay: Cytotoxicity to acute myelogenous leukemia cells (MV-4-11 cells), CCK-8; conditions: Homo sapiens, MV4-11, 72 h
[2] = test system: thymus cancer cells (Ty-82 cells); assay: Cytotoxicity to thymus cancer cells (Ty-82 cells), WST-1; conditions: Homo sapiens, TY82, 72 h
[3] = molecular target: BRD4 (BD1+BD2) bromodomain (Homo sapiens (Human), UniProt O60885); assay: BRD4 binding inhibition (AlphaScreen, GST-BRD4 vs tetraacetylated histone H4 peptide)
In short: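 GST-BRD4 (BD1+BD2) and biotinylated tetraacetyl-histone H4 peptide, each at 100 nM in HEPES pH 7.4 buffer with BSA and DTT, were combined with compound. Glutathione acceptor and streptavidin donor beads were added, then incubated 30 min at room temperature in the dark. Read-out was AlphaScreen signal.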

[4] = read-out: MV-4-11 Cytotoxicity IC50
[5] = read-out: Ty-82 Cytotoxicity IC50
[6] = GST-BRD4 (BD1+BD2) / biotinylated acetyl-histone H4 (Lys5,8,12,16) peptide, read-out: IC50, BRD4 binding inhibition
[7] = GST-BRD4 (BD1+BD2) vs biotinylated acetyl-histone H4 peptide, AlphaScreen, read-out: BRD4 IC50
[8] = read-out: IC50, cytotoxicity against thymus cancer cells
[9] = read-out: IC50, cytotoxicity against acute myelogenous leukemia cells

IC50 [3, 6] [µM]	IC50 [3, 7] [µM]	SMILES	IC50 [1, 4] [µM]	IC50 [2, 5] [µM]	IC50 [2, 8] [µM]	IC50 [1, 9] [µM]
		Cc1nnc2c(NCCCCNC(=O)c3ccccc3)nc3ccccc3n12 [Example 11, N-[4-(1-methyl-[1,2,4]triazolo[4,3-a]quinoxaline-4-ylamino)-butyl]-benzamide]	0.71	0.95		
≤ 0.05	0.02	COc1cc2nc(NCCCCNC(=O)OC(C)(C)C)c3nnc(C)n3c2cc1OC [Example 57, [4-(7,8-dimethoxy-1-methyl-[1,2,4]triazolo[4,3-a]quinoxaline-4-ylamino)-butyl]-carbamic acid-tert-butylester]	0.76	0.74		
≤ 0.05	0.034	COc1cc2nc(NCCCCNC(=O)C(C)(C)C)c3nnc(C)n3c2cc1OC [Example 59, N-[4-(7,8-dimethoxy-1-methyl-[1,2,4]triazolo[4,3-a]quinoxaline-4-ylamino)-butyl]-2,2-dimethyl-propionamide]	0.31	0.42	≤ 0.5	
≤ 0.05	0.012	COc1cc2nc(NCCCCNC(=O)OC(C)C)c3nnc(C)n3c2cc1OC [Example 60, [4-(7,8-dimethoxy-1-methyl-[1,2,4]triazolo[4,3-a]quinoxaline-4-ylamino)-butyl]-carbamic acid isopropylester]	0.01	0.12	≤ 0.5	≤ 0.2
≤ 0.05	0.046	COc1ccc2nc(NCCCCNC(=O)c3ccccc3)c3nnc(C)n3c2c1 [Example 127, N-[4-(8-methoxy-1-methyl-[1,2,4]triazolo[4,3-a]quinoxaline-4-ylamino)-butyl]-benzamide]		0.62		
≤ 0.05	0.017	COc1ccc2nc(NCCCCNC(=O)c3ccc(C)nc3Cl)c3nnc(C)n3c2c1 [Example 129]		0.83		
≤ 0.05	0.034	COc1c(C)ccc2c1nc(NCCCCNC(=O)OC(C)C)c1nnc(C)n12 [Example 133, [4-(6-methoxy-1,7-dimethyl-[1,2,4]triazolo[4,3-a]quinoxaline-4-ylamino)-butyl]-carbamic acid isopropylester]		0.88		
≤ 0.05	0.026	COCCOc1cc2nc(NCCCCNC(=O)c3ccccc3Cl)c3nnc(C)n3c2cc1OCCOC [Example 171, N-{4-[7,8-bis-(2-methoxy-ethoxy)-1-methyl-[1,2,4]triazolo[4,3-a]quinoxaline-4-ylamino]-butyl}-2-chloro-benzamide]		0.58		
≤ 0.05	0.044	Cc1nnc2c(NCCCCNC(=O)OC(C)(C)C)nc3cc(C(=O)NC(C)C)ccc3n12 [Example 202, [4-(7-isopropylcarbamoyl-1-methyl-[1,2,4]triazolo[4,3-a]quinoxaline-4-ylamino)-butyl]-carbamic acid-tert-butylester]		0.64		
	0.075	Cc1nnc2c(NCCCCNC(=O)c3ccccc3)nc3cc(C(=O)NC(C)C)ccc3n12 [Example 205, 4-(4-benzoylamino-butylamino)-1-methyl-[1,2,4]triazolo[4,3-a]quinoxaline-7-carboxylic acid isopropylamide]		0.55		
≤ 0.05	0.018	Cc1nnc2c(NCCCCNC(=O)OC(C)(C)C)nc3cc(C(=O)NCc4ccccc4)ccc3n12 [Example 210, [4-(7-benzylcarbamoyl-1-methyl-[1,2,4]triazolo[4,3-a]quinoxaline-4-ylamino)-butyl]-carbamic acid-tert-butylester]		0.76		
≤ 0.05	0.035	Cc1nnc2c(NCCCCNC(=O)OC(C)(C)C)nc3cc(C(=O)Nc4ccccc4)ccc3n12 [Example 212, [4-(1-methyl-7-phenylcarbamoyl-[1,2,4]triazolo[4,3-a]quinoxaline-4-ylamino)-butyl]-carbamic acid-tert-butylester]		0.84		
≤ 0.05	0.023	Cc1nnc2c(NCCCCNC(=O)OC(C)(C)C)nc3cc(NC(=O)C(C)C)ccc3n12 [Example 246, [4-(7-isobutyramido-1-methyl-[1,2,4]triazolo[4,3-a]quinoxaline-4-ylamino)-butyl]-carbamic acid-tert-butylester]		0.49	≤ 0.5	
≤ 0.05	0.031	Cc1nnc2c(NCCCCNC(=O)C(C)(C)C)nc3cc(NC(=O)C(C)C)ccc3n12 [Example 247, N-[4-(7-isobutyramido-1-methyl-[1,2,4]triazolo[4,3-a]quinoxaline-4-ylamino)-butyl]-2,2-dimethyl-propionamide]		0.4	≤ 0.5	
	0.054	Cc1nnc2c(NCCCCNC(=O)c3ccccc3)nc3cc(NC(=O)C(C)C)ccc3n12 [Example 248, N-[4-(7-isobutyramido-1-methyl-[1,2,4]triazolo[4,3-a]quinoxaline-4-ylamino)-butyl]-benzamide]		0.51		
≤ 0.05		CC(=O)Nc1ccc2c(c1)nc(NCCCCNC(=O)OC(C)(C)C)c1nnc(C)n12 [Example 249, [4-(7-acetylamino-methyl-[1,2,4]triazolo[4,3-a]quinoxaline-4-ylamino)-butyl]-carbamic acid-tert-butylester]		0.4	≤ 0.5	
≤ 0.05		CC(=O)Nc1ccc2c(c1)nc(NCCCCNC(=O)C(C)(C)C)c1nnc(C)n12 [Example 250, N-[4-(7-acetylamino-methyl-[1,2,4]triazolo[4,3-a]quinoxaline-4-ylamino)-butyl]-2,2-dimethyl-propionamide]		0.3	≤ 0.5	
≤ 0.05		CC(=O)Nc1ccc2c(c1)nc(NCCCCNC(=O)c1ccccc1)c1nnc(C)n12 [Example 251, N-[4-(7-acetylamino-methyl-[1,2,4]triazolo[4,3-a]quinoxaline-4-ylamino)-butyl]-benzamide]		0.68		
		COc1ccc2c(c1)nc(NCCCCNC(=O)C(C)(C)C)c1nnc(C)n12 [Example 277, N-[4-(7-methoxy-1-methyl-[1,2,4]triazolo[4,3-a]quinoxaline-4-ylamino)-butyl]-2,2-dimethyl-propionamide]	0.55	0.93		
	0.061	COc1cc2nc(NCCCCNC(=O)OC(C)(C)C)c3nnc(C)n3c2cc1C [Example 464, [4-(7-methoxy-1,8-dimethyl-[1,2,4]triazolo[4,3-a]quinoxaline-4-ylamino)-butyl]-carbamic acid-tert-butylester]		0.79		
		COc1cc2nc(NCCCCNC(=O)C(C)(C)C)c3nnc(C)n3c2cc1C [Example 466]	0.083	0.34	≤ 0.5	≤ 0.2
≤ 0.05	0.036	Cc1nnc2c(NCCCCC(=O)NCC(C)C)nc3ccccc3n12 [Example 660, 5-(1-methyl-[1,2,4]triazolo[4,3-a]quinoxaline-4-ylamino)-pentanoic acid isobutylamide]		0.84		

SMILES	IC50 [3, 6] [µM]	IC50 [3, 7] [µM]	IC50 [1, 4] [µM]	IC50 [2, 5] [µM]	IC50 [2, 8] [µM]	IC50 [1, 9] [µM]
COC(=O)c1ccc2c(c1)nc(NCCCCNC(=O)OC(C)(C)C)c1nnc(C)n12 [Example 197, 4-(4-tert-butoxycarbamoylamino-butylamino)-1-methyl-[1,2,4]triazolo[4,3-a]quinoxaline-7-carboxylic acid methylester]	≤ 0.05	0.028		0.65		
